Target: recombinant human ACC1 (Homo sapiens (Human), UniProt Q13085)
Assay: Measurement of inhibitory activity on human ACC1 (MALDI-TOF MS, conversion of acetyl CoA to malonyl CoA)
Type: biochemical
Details: recombinant human ACC1, room temperature, 1 to 3 hours
From the text: After a cDNA encoding human ACC1 (1 amino acid residue to 2346 amino acid residues from the N-terminus) was cloned from human liver cDNA library (BioChain), human ACC1 gene containing myc-tag and His-tag sequence at 3′ terminus was inserted into pIEXBAC3 (Novagen). Recombinant baculovirus was generated using FlashBACGOLD system (Oxford Expression Technologies) according to the manufacturer's protocol. To express human ACC1, Sf-9 cells were infected with recombinant baculovirus. After infected cells were disrupted, the filtrated lysate was subjected to Ni-affinity chromatography and anion-exchange chromatography. The fractions containing human ACC1 protein were pooled as recombinant human ACC1 solution.
(§1) Recombinant human ACC1 and recombinant human ACC2, which were prepared by the method mentioned above, were preincubated with assay buffer solution (50 mM HEPES-KOH (pH 7.4), 10 mM magnesium chloride, 6-10 mM potassium citrate, 4 mM reduced form of glutathione, 1.5 mg/ml bovine serum albumin) for one hour. Then, 0.2 μL of each this invention compound solution (in DMSO) were dispensed to 384-well microplate, 5 μL of the preincubated enzyme solution and 5 μL of substrate solution (50 mM HEPES-KOH (pH 7.4), 1 mM ATP, 0.8 mM acetyl CoA and 25-50 mM potassium bicarbonate) were added to microplate. After centrifugation and shaking, the reaction mixtures were incubated in a humidified box at room temperature for 1 to 3 hours. After the incubation, the enzyme reactions were stopped by the addition of EDTA. Then, after the samples were cocrystallized with CHCA (α-cyano-4-hydroxy cinnamic acid) matrices on MALDI target plate, by using the matrix assist laser […] time-of-flight mass spectrometer (MALDI-TOF MS), samples were measured in reflector negative mode. Deprotonated ions of acetyl CoA (AcCoA) of substrate and malonyl CoA (MalCoA) of the reaction product were detected, then, the conversion rates of acetyl CoA to malonyl CoA was calculated by the intensity of [MalCoA-H]−/(Intensity of [MalCoA-H].+Intensity of [AcCoA-H]—) using each signal strength. […] In addition, potassium citrate concentrations in assay buffer solution, potassium hydrogen carbonate concentrations in substrate solution and incubation time were adjusted by each lot of enzyme.

| SMILES | IC50 |
| --- | --- |
| Cn1c(O[C@H]2CC[C@H](OC[C@H](CF)NC(=O)C3CC3)CC2)nc2c(F)cc(OCC(F)F)c(F)c21 [Example I-233] | > 100000 nM |
| CC(=O)N[C@@H](C)CC(F)(F)[C@@H]1CC[C@@H](Oc2nc3c(F)cc(OCC(F)F)c(F)c3n2C)CO1 [Example I-230] | > 100000 nM |

Continued, values first:

| IC50 | SMILES |
| --- | --- |
| > 100000 nM | CC(=O)N[C@@H](C)CO[C@H]1CC[C@H](Cc2nc3c(F)cc(OCC(F)F)c(F)c3n2C)CC1 [Example I-252] |
| > 100000 nM | C[C@@H](CO[C@H]1CC[C@H](Oc2nc3ncc(OC4CC4)cc3n2C)CC1)NC(N)=O [Example I-204] |
| > 100000 nM | C[C@@H](CO[C@H]1CC[C@H](Oc2nc3c(F)cc(OCC(F)F)c(Cl)c3n2C)CC1)NS(N)(=O)=O [Example I-248] |
| > 100000 nM | CC(=O)N[C@@H](C)CO[C@H]1CC[C@H](Oc2nc3ncc(OC4CC4)cc3n2C)CC1 [Example I-199] |
| > 100000 nM | Cn1c(O[C@H]2CC[C@H](OC[C@H](CF)NC(=O)CO)CC2)nc2c(F)cc(OCC(F)F)c(F)c21 [Example I-245] |

Target: recombinant human ACC2 (Homo sapiens (Human), UniProt O00763)
Assay: Measurement of inhibitory activity on human ACC2 (MALDI-TOF MS, conversion of acetyl CoA to malonyl CoA)
Type: biochemical
Details: recombinant human ACC2, room temperature, 1 to 3 hours
From the text: After a cDNA encoding human ACC2 (27 amino acid residue to 2458 amino acid residues from the N-terminus) was cloned from human kidney cDNA library (Clontech), human ACC2 gene containing His-tag sequence at 5′ terminus was inserted into pFastBac1 (Invitrogen). Recombinant baculovirus was generated using Bac-to-Bac baculovirus expression system (Invitrogen) according to the manufacturer's protocol. To express human ACC2, Sf-9 cells were infected with recombinant baculovirus. After infected cells were disrupted, the filtrated lysate was subjected to Ni-affinity chromatography and anion-exchange chromatography. The fractions containing human ACC2 protein were pooled as recombinant human ACC2 solution.
as §1

Sequence of recombinant human ACC2 (O00763 27-2458): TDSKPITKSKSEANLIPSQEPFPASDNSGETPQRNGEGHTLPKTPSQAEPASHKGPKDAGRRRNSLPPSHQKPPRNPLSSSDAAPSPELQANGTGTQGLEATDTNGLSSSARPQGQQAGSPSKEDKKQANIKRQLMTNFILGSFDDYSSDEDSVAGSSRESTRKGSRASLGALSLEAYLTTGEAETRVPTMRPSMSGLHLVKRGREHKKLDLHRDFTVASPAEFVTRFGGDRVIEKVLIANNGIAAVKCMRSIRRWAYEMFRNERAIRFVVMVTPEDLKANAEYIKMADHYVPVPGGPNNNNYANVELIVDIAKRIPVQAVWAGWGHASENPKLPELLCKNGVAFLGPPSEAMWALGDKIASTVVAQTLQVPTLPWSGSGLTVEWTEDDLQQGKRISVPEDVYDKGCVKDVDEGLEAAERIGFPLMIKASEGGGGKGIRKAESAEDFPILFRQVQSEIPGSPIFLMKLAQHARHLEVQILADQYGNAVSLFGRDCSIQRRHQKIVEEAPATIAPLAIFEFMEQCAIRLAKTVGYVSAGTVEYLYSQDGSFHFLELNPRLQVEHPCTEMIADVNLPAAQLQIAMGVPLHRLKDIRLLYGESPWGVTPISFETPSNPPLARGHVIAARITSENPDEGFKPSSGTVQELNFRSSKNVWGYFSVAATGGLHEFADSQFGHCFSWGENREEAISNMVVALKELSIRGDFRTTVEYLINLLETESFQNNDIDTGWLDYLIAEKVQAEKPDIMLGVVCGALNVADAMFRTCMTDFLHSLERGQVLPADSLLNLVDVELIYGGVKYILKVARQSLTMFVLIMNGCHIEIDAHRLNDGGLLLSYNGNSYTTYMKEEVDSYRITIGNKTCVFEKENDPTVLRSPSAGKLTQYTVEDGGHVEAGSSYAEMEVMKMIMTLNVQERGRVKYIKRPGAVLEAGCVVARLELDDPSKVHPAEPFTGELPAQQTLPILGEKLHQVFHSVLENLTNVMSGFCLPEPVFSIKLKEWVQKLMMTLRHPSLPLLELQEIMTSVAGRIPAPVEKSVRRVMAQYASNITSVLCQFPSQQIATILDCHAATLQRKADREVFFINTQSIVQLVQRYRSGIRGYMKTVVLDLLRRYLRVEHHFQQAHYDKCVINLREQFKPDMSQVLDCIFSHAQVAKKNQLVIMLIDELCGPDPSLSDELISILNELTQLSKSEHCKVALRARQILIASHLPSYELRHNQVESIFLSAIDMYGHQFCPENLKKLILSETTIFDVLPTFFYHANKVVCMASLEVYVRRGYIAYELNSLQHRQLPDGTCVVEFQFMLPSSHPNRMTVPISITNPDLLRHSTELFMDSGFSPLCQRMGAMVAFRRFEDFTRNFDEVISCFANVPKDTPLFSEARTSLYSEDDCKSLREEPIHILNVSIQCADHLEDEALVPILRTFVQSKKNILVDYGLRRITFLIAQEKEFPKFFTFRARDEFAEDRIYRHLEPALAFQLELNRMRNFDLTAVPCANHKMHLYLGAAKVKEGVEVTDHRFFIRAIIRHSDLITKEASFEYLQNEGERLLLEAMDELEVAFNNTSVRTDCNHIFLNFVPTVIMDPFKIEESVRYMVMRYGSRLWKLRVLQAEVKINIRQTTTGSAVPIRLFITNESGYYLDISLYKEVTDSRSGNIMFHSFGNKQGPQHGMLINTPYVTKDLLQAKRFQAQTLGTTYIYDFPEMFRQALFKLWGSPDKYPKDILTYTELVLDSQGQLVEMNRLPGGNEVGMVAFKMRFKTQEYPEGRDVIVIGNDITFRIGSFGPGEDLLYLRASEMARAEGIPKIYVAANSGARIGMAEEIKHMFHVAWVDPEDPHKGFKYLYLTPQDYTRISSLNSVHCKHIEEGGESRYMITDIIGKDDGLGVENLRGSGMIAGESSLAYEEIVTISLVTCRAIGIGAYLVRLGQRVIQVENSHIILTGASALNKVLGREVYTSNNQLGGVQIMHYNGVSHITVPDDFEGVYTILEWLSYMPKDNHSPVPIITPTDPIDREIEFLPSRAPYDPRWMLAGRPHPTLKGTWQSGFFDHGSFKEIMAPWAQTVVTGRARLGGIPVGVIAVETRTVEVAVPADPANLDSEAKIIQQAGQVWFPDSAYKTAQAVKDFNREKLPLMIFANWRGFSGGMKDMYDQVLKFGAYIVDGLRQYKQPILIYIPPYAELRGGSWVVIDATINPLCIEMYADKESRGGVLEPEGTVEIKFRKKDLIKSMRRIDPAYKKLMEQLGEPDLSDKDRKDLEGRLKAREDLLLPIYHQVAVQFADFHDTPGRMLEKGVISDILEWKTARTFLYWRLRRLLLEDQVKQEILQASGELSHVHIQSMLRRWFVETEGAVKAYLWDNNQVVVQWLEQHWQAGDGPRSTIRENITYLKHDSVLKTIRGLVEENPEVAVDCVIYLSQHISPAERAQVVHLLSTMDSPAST

| SMILES | IC50 |
| --- | --- |
| CC(=O)N[C@@H](C)CO[C@H]1CC[C@H](Oc2nc3ccc(OC4CC4)nc3n2C)CC1 [Example I-234] | 13 nM |
| CC(=O)N[C@@H](C)CC[C@H]1OC[C@H](Oc2nc3c(F)cc(OCC(F)F)c(F)c3n2C)C[C@@H]1F [Example I-196] | 10 nM |
| CC(=O)N[C@@H](CF)CO[C@H]1CC[C@H](Oc2nc3c(C#N)cc(OC4CC4)c(F)c3n2C)CC1 [Example I-206] | 12 nM |
| CC(=O)N[C@@H](C)CO[C@H]1CC[C@H](Oc2nc3c(F)cc(OC4(C)COC4)c(F)c3n2C)CC1 [Example I-203] | 110 nM |
| CC(=O)N[C@@H](C)CO[C@H]1CC[C@H](Oc2nc3c(F)cc(OCC(F)F)c(F)c3n2C)CC1 [Example I-208] | 8.7 nM |
| Cn1c(O[C@H]2CC[C@H](OC[C@H](CF)NC(=O)CC#N)CC2)nc2c(F)cc(OCC(F)F)c(F)c21 [Example I-227] | 44 nM |
| CC(=O)N[C@@H](C)CO[C@H]1CC[C@@H](Cc2nc3c(F)cc(OCC(F)F)c(F)c3n2C)CC1 [Example I-251] | 100 nM |
| CC(=O)N[C@@H](C)CO[C@H]1CC[C@H](Oc2nc3cc(F)c(OC4CC4)c(F)c3n2C)CC1 [Example I-207] | 5.4 nM |
| C[C@@H](CO[C@H]1CC[C@H](Oc2nc3c(Cl)cc(OC4CC4)cc3n2C)CC1)NC(N)=O [Example I-222] | 17 nM |
| CC(=O)N[C@@H](C)CO[C@H]1CC[C@H](Oc2nc3c(F)cc(OC(F)F)c(F)c3n2C)CC1 [Example I-231] | 10 nM |
| C[C@@H](CO[C@H]1CC[C@H](Oc2nc3c(F)c(F)c(F)c(F)c3n2C)CC1)NC(N)=O [Example I-235] | 43 nM |
| CC(=O)N[C@@H](C)/C=C(\F)[C@@H]1CC[C@@H](Oc2nc3c(F)cc(OCC(F)F)c(F)c3n2C)CO1 [Example I-250] | 21 nM |
| Cn1c(O[C@H]2CC[C@H](OC[C@H](CF)NC(N)=O)CC2)nc2c(F)cc(OC3CC3)cc21 [Example I-213] | 8.9 nM |
| CC(=O)N[C@@H](C)C(F)(F)C[C@H]1CC[C@H](Oc2nc3c(F)cc(OCC(F)F)c(F)c3n2C)CO1 [Example I-214] | 12 nM |
| CC(=O)N[C@@H](C)CO[C@H]1CC[C@H](Oc2nc3c(F)cc(OCC4(F)COC4)c(F)c3n2C)CC1 [Example I-195] | 35 nM |
| C[C@@H](CO[C@H]1CC[C@H](Oc2nc3cc(F)c(OC4CC4)c(F)c3n2C)CC1)NC(N)=O [Example I-241] | 9.5 nM |
| C[C@@H](CO[C@H]1CC[C@H](Oc2nc3ccc(OC4CC4)c(F)c3n2C)CC1)NC(N)=O [Example I-198] | 5.3 nM |
| Cn1c(O[C@H]2CC[C@H](OC[C@H](CF)NC(=O)C3CC3)CC2)nc2c(F)cc(OCC(F)F)c(F)c21 [Example I-233] | 31 nM |
| CC(=O)N[C@@H](C)CC(F)(F)[C@@H]1CC[C@@H](Oc2nc3c(F)cc(OCC(F)F)c(F)c3n2C)CO1 [Example I-230] | 89 nM |
| CC(=O)N[C@@H](CF)CO[C@H]1CC[C@H](Oc2nc3c(F)cc(OC4CC4)cc3n2C)CC1 [Example I-201] | 4.7 nM |
| CC(=O)N[C@@H](C)CO[C@H]1CC[C@H](Oc2nc3c(F)cc(O[C@H]4C[C@H](O)C4)c(F)c3n2C)CC1 [Example I-223] | 87 nM |
| CC(=O)N[C@H](C)C(F)(F)C[C@H]1CC[C@H](Oc2nc3c(F)cc(OCC(F)F)c(F)c3n2C)CO1 [Example I-220] | 180 nM |
| C[C@@H](CO[C@H]1CC[C@H](Oc2nc3cnc(OC4CC4)c(F)c3n2C)CC1)NC(N)=O [Example I-237] | 12 nM |
| CC(=O)N[C@@H](C)CO[C@H]1CC[C@H](Oc2nc3cc(F)c(Cl)cc3n2C)CC1 [Example I-217] | 64 nM |
| CC(=O)N[C@@H](C)CO[C@H]1CC[C@H](Oc2nc3c(F)cc(OCC(C)(C)C#N)c(F)c3n2C)CC1 [Example I-244] | 26 nM |
| CC(=O)N[C@@H](C)CO[C@H]1CC[C@H](Oc2nc3c(C#N)cc(OC4CCC4)c(F)c3n2C)CC1 [Example I-226] | 6.1 nM |
| CC(=O)N[C@@H](C)CO[C@H]1CC[C@H](Oc2nc3cc(F)c(F)cc3n2C)CC1 [Example I-238] | 83 nM |

Further lines, results first:

| IC50 | SMILES |
| --- | --- |
| 78 nM | CC(=O)N[C@@H](C)CO[C@H]1CC[C@H](Oc2nc3c(F)cc(O[C@H]4C[C@@H](O)C4)c(F)c3n2C)CC1 [Example I-246] |
| 11 nM | Cn1c(O[C@H]2CC[C@H](OC[C@H](CF)NC(N)=O)CC2)nc2c(F)cc(OCC(F)F)c(F)c21 [Example I-232] |
| 44 nM | C[C@@H](CO[C@H]1CC[C@H](Oc2nc3ccc(OC4CC4)nc3n2C)CC1)NC(N)=O [Example I-240] |
| 160 nM | C[C@@H](CO[C@H]1CC[C@H](Oc2nc3c(F)cc(OCC(F)F)c(Cl)c3n2C)CC1)NS(N)(=O)=O [Example I-248] |
| 3.9 nM | CC(=O)N[C@@H](C)CO[C@H]1CC[C@H](Oc2nc3ccc(OC4CC4)c(F)c3n2C)CC1 [Example I-247] |
| 120 nM | C[C@@H](CO[C@H]1CC[C@H](Oc2nc3cc(F)c(OC4CC4)cc3n2C)CC1)NC(N)=O [Example I-218] |
| 120 nM | CC(=O)N[C@@H](C)CO[C@H]1CC[C@H](Oc2nc3cc(Cl)c(F)cc3n2C)CC1 [Example I-211] |
| 730 nM | CC(=O)N[C@@H](C)CO[C@H]1CC[C@H](Oc2nc3ncc(OC4CC4)cc3n2C)CC1 [Example I-199] |
| 17 nM | CC(=O)N[C@@H](C)CO[C@H]1CC[C@H](Oc2nc3cc(F)c(F)c(F)c3n2C)CC1 [Example I-215] |
| 33 nM | CC(=O)N[C@@H](C)CO[C@H]1CC[C@H](Oc2nc3c(C#N)cc(OC4CC4)cc3n2C)CC1 [Example I-225] |
| 5.3 nM | CC(=O)N[C@@H](C)CO[C@H]1CC[C@H](Oc2nc3c(F)c(F)c(OCC(F)F)c(F)c3n2C)CC1 [Example I-209] |
| 30 nM | COC(=O)N[C@@H](CF)CO[C@H]1CC[C@H](Oc2nc3c(F)cc(OCC(F)F)c(F)c3n2C)CC1 [Example I-239] |
| 150 nM | CC(=O)N[C@@H](C)CO[C@H]1CC[C@H](Oc2nc3cnc(OC4CC4)cc3n2C)CC1 [Example I-224] |
| 13 nM | CC(=O)N[C@@H](C)CC[C@H]1OC[C@H](Oc2nc3c(F)cc(OCC(F)F)c(F)c3n2C)CC1(F)F [Example I-228] |
| 6.6 nM | CC(=O)N[C@@H](C)CC[C@H]1OC[C@H](Oc2nc3c(F)cc(OC4CC4)cc3n2C)CO1 [Example I-249] |
| 5.6 nM | C[C@@H](CO[C@H]1CC[C@H](Oc2nc3c(F)cc(OC4CC4)cc3n2C)CC1)NC(N)=O [Example I-243] |
| 12 nM | CC(=O)N[C@@H](C)CO[C@H]1CC[C@H](Oc2nc3c(F)cc(OC4COC4)c(Cl)c3n2C)CC1 [Example I-219] |
| 9.1 nM | CC(=O)N[C@@H](C)CO[C@H]1CC[C@H](Oc2nc3ccc(OC4CC4)cc3n2C)CC1 [Example I-221] |
| 600 nM | C[C@@H](CO[C@H]1CC[C@H](Oc2nc3cnc(OC4CC4)cc3n2C)CC1)NC(N)=O [Example I-229] |
| 4.6 nM | CC(=O)N[C@@H](CF)CO[C@H]1CC[C@H](Oc2nc3c(F)cc(OCC(F)F)c(Cl)c3n2C)CC1 [Example I-205] |
| 17 nM | CC(=O)N[C@@H](C)CO[C@H]1CC[C@H](Oc2nc3ccc(OC4(C)CC4)cc3n2C)CC1 [Example I-202] |
| 7.2 nM | CC(=O)N[C@@H](CF)CO[C@H]1CC[C@H](Oc2nc3cnc(OC4CC4)c(F)c3n2C)CC1 [Example I-210] |
| 57 nM | CC(=O)N[C@@H](C)CO[C@H]1CC[C@H](Oc2nc3c(F)cc(OC4CC5(COC5)C4)c(F)c3n2C)CC1 [Example I-216] |
| 53 nM | Cn1c(O[C@H]2CC[C@H](OC[C@H](CF)NC(=O)CO)CC2)nc2c(F)cc(OCC(F)F)c(F)c21 [Example I-245] |
| 13 nM | C[C@@H](CO[C@H]1CC[C@H](Oc2nc3ccc(OC4CC4)cc3n2C)CC1)NC(N)=O [Example I-197] |
| 55 nM | CC(=O)N[C@@H](C)CO[C@H]1CC[C@H](Oc2nc3cc(F)c(OC4CC4)cc3n2C)CC1 [Example I-212] |

Source: patent publication US10233156B2, “9-membered fused ring derivative” (Shionogi & Co., Ltd., priority 2015, dated 2019)
